{"source": "paper PMC8453745", "about": "“Human Mass Balance and Metabolite Profiling of [^14C]‐Pamiparib, a Poly (ADP‐Ribose) Polymerase Inhibitor, in Patients With Advanced Cancer” (Clinical Pharmacology in Drug Development, 2021)", "key": {"[1]": {"assay": "metabolite profiling in plasma (radioprofiling, LC‐MS)", "type": "in vivo, human", "protocol": "(§1) Total radioactivity concentrations of [^14C]‐pamiparib in whole blood, plasma, urine, and feces were determined by liquid scintillation counting (LSC). Radioactivity in each sample was measured for 5 minutes using a Packard Tri‐Carb liquid scintillation counter model 2100TR, 2900TR, or 3100TR (Canberra Packard, Pangbourne, Berks, Australia) with the facilities for computing quench‐corrected disintegrations per minute. Metabolite identification in plasma, urine, and feces was conducted by LC‐MS. Quantitation of the metabolites present in plasma, urine, and feces was based on the profiles of radioactivity. The limit of quantitation for radioactivity in plasma, urine, and feces was set at 1% of each chromatographic analysis (run) and 10 counts per minute (cpm) peak height; therefore, radioactive peaks that were <1% of the total run or <10 cpm peak height were reported as not detected. In addition, pamiparib and standards were reported, regardless of the percentage of run or peak height.\nFor metabolite profiling in plasma, ≈1.9 to 2.8 g of each plasma sample collected 0.5, 1, 2, 6, 12, and 24 hours postdose was extracted twice with 6 mL of 0.1% formic acid in acetonitrile (ACN). Duplicate aliquots were analyzed by LSC to determine extraction recoveries, which ranged from 77.4% to 98.5%. The combined supernatants were evaporated to dryness under nitrogen and reconstituted in 2:1 reverse osmosis water:methanol (MeOH). Duplicate aliquots were analyzed by LSC to determine reconstitution recoveries, which ranged from 89.3% to 115%. The reconstituted samples were analyzed by LC‐MS, with eluent fractions collected at 10‐second intervals into 96‐well plates containing solid scintillant. Radioactivity in each well was determined using TopCount analysis, and radiochemical profiles were generated based on radioactivity counts.\n(§2) Metabolic profiling was performed on plasma, urine, and feces samples using LC‐MS. Shimadzu/Nexera LC‐30AD pumps and Shimadzu/Prominence DGU‐20A5R degasser were used with Shimadzu/Prominence controller CBM‐20A. The high‐pressure liquid chromatograph (HPLC) was equipped with an autoinjector (Shimadzu/Nexera SIL‐30ACMP) set at 10°C and a fraction collector (Leap Technologies PAL HTC‐xt) set at 15°C. Thermo Fisher Scientific Q Exactive was the mass spectrometer system."}, "PARP1": {"test_system": "PARP1", "parameters": "method as in PMID 33264017", "conditions": "read-out: PARP1 inhibition IC50; cited from earlier work"}, "[2]": {"assay": "metabolite profiling in pooled urine (radioprofiling, LC‐MS)", "type": "in vivo, human", "conditions": "pooled urine", "protocol": "as §1\nEach aliquot of urine (about 1 mL, weighed) was added directly to liquid scintillant prior to LSC. For metabolite profiling, urine samples collected 0‐4, 4‐8, 8‐12, 12‐24, 24‐48, 48‐72, and 72‐96 hours postdose were pooled by individual patient to generate 0‐ to 96‐hour pooled samples including 0.2% of each sample by weight. The radioactivity in each pooled sample was determined by LSC. The total amount of urine collected was factored into the recovery calculation. […] Pooled urine samples were analyzed by LC‐MS, with eluent fractions collected at 10‐second intervals into 96‐well plates containing solid scintillant. Radioactivity in each well was determined using TopCount analysis, and radiochemical profiles were generated based on radioactivity counts.\nas §2"}, "[3]": {"test_system": "BRCA1 mutant mouse xenograft", "conditions": "BRCA1 mutant mouse xenograft model; cited from earlier work"}, "[4]": {"assay": "metabolite profiling in pooled feces (radioprofiling, LC‐MS)", "type": "in vivo, human", "conditions": "pooled feces", "protocol": "as §1\nPortions of fecal homogenates (about 200‐500 mg) were subjected to combustion analysis prior to LSC. For metabolite profiling, feces samples collected 0‐24, 24‐48, 48‐72, 72‐96, and 96‐120 hours postdose were pooled by individual patient to generate 0‐ to 120‐hour pooled samples including 0.5% of each sample by weight. Feces were pooled per patient (if required) according to the appropriate 24‐hour collection period. The samples were homogenized in deionized water, avoiding excessive dilution (data on file). The radioactivity in each pooled sample was determined by LSC. The total amount of feces collected was factored into the recovery calculation. Approximately 1.6 to 2.7 g of each pooled feces sample was extracted twice with 6 mL of 0.1% formic acid in ACN. […] The combined supernatants were evaporated to dryness under nitrogen and reconstituted in 300 μL of MeOH. […] The reconstituted samples were analyzed by LC‐MS, with eluent fractions collected, and radiochemical profiles were generated based on radioactivity counts. […]"}}, "note": "“And” between values parts separate entries of the source, which are not always exact repeats. Equal entries are not always repeated.", "data": [{"smiles": "C[C@]12CCCN1CC1=NNC(=O)c3cc(F)cc4[nH]c2c1c34", "note": "[Pamiparib]", "values": [{"measurement": "AUC0‐t, geometric mean", "setting": "[1]; based on high‐performance liquid chromatography‐liquid scintillation counting", "value": 19670, "unit": "ngEq·h/mL"}, {"measurement": "Cmax, geometric mean", "setting": "[1]; based on high‐performance liquid chromatography‐liquid solid chromatography", "value": 1737, "unit": "ngEq/mL"}, {"measurement": "mean percent of total radioactivity exposure in plasma (AUC0‐24h)", "setting": "[1]; plasma, mean of patients", "value": "67.2% ± 10.2% and 67.2% and 67%"}, {"measurement": "Percent of Total Radioactivity Concentration (AUC0‐24h)", "setting": "[1]; plasma, patient S101", "value": 78.0, "unit": "%"}, {"measurement": "Percent of Total Radioactivity Concentration (AUC0‐24h)", "setting": "[1]; plasma, patient S102", "value": 72.6, "unit": "%"}, {"measurement": "Percent of Total Radioactivity Concentration (AUC0‐24h)", "setting": "[1]; plasma, patient S103", "value": 63.2, "unit": "%"}, {"measurement": "Percent of Total Radioactivity Concentration (AUC0‐24h)", "setting": "[1]; plasma, patient S104", "value": 55.0, "unit": "%"}, {"measurement": "IC50", "setting": "PARP1", "value": 1.3, "unit": "nM"}, {"measurement": "dose quantified in urine", "setting": "[2]", "value": "52.5 % of the dose"}, {"measurement": "antitumor activity", "setting": "[3]", "value": "strong antitumor activity"}, {"measurement": "potency compared with olaparib", "setting": "[3]", "value": "more potent than olaparib"}, {"measurement": "dose quantified in feces", "setting": "[4]", "value": "17.5 % of the dose"}]}]}
